Data as given in US20240043395A1, “COMPOUNDS AND COMPOSITIONS AS MODULATORS OF TLR SIGNALING” (Neuropore Therapies, Inc., priority 2020, published 2024).

What was measured:
Assay type in all cases: cell-based
human TLR2 [1] = molecular target: T1, human TLR2 (Homo sapiens (Human), UniProt O60603); assay: HEK-Blue hTLR2 antagonism assay (SEAP reporter), agonist Pam2CSK4; conditions: HEK-Blue hTLR2 cells; Pam2CSK4 (TLR2/6 agonist) at approx. 3×EC50; 18 h; 8-point dilutions
Experimental: (§1) Synthetic diacylated lipoprotein (Pam2CSK4, TLR2/6 agonist) and synthetic triacylated lipoprotein (Pam3CSK4, TLR1/2 agonist) were obtained from InvivoGen and were dissolved in endotoxin-free water to a concentration 1 mg/mL, vortexed until complete solubilization, and stored in aliquots at −20° C. Prior to addition to cells, an aliquot of the dissolved ligand was vortexed shortly and then was diluted in medium to 25 ng/mL Pam2CSK4 or 1000 ng/mL Pam3CSK4.
(§2) Test compounds were solubilized fresh to 10-20 mM stocks in DMSO and sonicated for 5-10 minutes in a water bath sonicator. Serial dilutions were prepared in DMSO, and then diluted in medium. The final concentration of DMSO used in the assay was 1%.
(§3) HEK-Blue hTLR2 reporter cells (InvivoGen) are HEK-293 cells stably expressing both the human TLR2 gene and a secreted embryonic alkaline phosphatase (SEAP) reporter construct downstream of NFκB promotor sites. HEK-Blue hTLR2 reporters were cultured according to manufacturer's protocol using Dulbecco's Modified Eagle Medium (DMEM; Gibco) containing 1× GlutaMax (Gibco), 10% heat-inactivated Fetal Bovine Serum (Gibco), Pen-Strep (50 U/mL penicillin, 50 μg/mL streptomycin, Gibco), 100 μg/mL Normocin (InvivoGen), and the selective antibiotic, lx HEK-Blue Selection (InvivoGen). Quanti-Blue reagent (InvivoGen) for detection and quantification of secreted alkaline phosphatase was dissolved in 100 mL of endotoxin-free water, warmed to 37° C. for 30 minutes and then filtered using a 0.2 μm membrane.
(§4) On day 1, 50 μL of each test compound dilution in duplicates or a vehicle control was added to each well of a 96-well plate followed by addition of 150 μL of HEK-Blue hTLR2 cell suspension (1×10^5 cells/well) and incubated at 37° C./5% CO2 for 2 h. Next, 50 μL of an approximate 3×EC50 concentration of each agonist (Pam2CSK4 or Pam3CSK4) was added to the wells containing test compounds or the vehicle control. The plates were then incubated at 37° C./5% CO2 for 18 h. For each assay run, non-treated HEK-Blue hTLR2 cells were treated with serial dilutions of agonists to determine EC50 values for the respective run.
(§5) On day 2, secreted alkaline phosphatase (SEAP) activity was detected in cell culture supernatants. In brief, 20 μL was collected from each well and transferred to a 96-well plate. Next, 200 μL of Quanti-Blue detection reagent was added to each well. Plates were incubated at room temperature for 15 min and SEAP activity was assessed by spectrophotometer OD reading at 655 nm. […] IC50 values were calculated based on 8-point dilutions for each compound.

human TLR2 [2] = molecular target: T1, human TLR2; assay: HEK-Blue hTLR2 antagonism assay (SEAP reporter), agonist Pam3CSK4; conditions: HEK-Blue hTLR2 cells; Pam3CSK4 (TLR1/2 agonist) at approx. 3×EC50; 18 h; 8-point dilutions
Experimental: as §1, §2, §3, §4, §5

human TLR9 = human TLR9 (Homo sapiens (Human), UniProt Q9NR96); assay: HEK-Blue hTLR9 antagonism assay (SEAP reporter), agonist ODN 2006; conditions: HEK-Blue hTLR9 cells; ODN 2006 (TLR9 agonist) at approx. 3×EC50; 18 h; exact values 8-point, approximate (~ or <) 4-point dilutions; read-out: IC50 (μM) with ODN2006
Experimental: Synthetic ODNs (ODN 2006 (ODN 7909), class B CpG oligonucleotide, TLR9 agonist) was obtained from InvivoGen and was dissolved in endotoxin-free water to a concentration 500 μM, vortexed until complete solubilization, and stored in aliquots at −20° C. Prior to addition to cells, an aliquot of the dissolved ligand was vortexed shortly and then was diluted in medium to 50 μM.
as §2
as §3, with “hTLR9” for “hTLR2”, “TLR9” for “TLR2”, “hTLR9 cells” for “hTLR2 reporters”, “antibiotics, 10 μg/mL Blasticidin (InvivoGen), and 100 μg/mL Zeocin” for “antibiotic, lx HEK-Blue Selection”
as §4, with “hTLR9” for “hTLR2”, “TLR9 agonist, ODN 2006,” for “each agonist (Pam2CSK4 or Pam3CSK4)”, “vehicle-treated” for “non-treated”, “agonist” for “agonists”
On day 2, secreted alkaline phosphatase (SEAP) activity was detected in cell culture supernatants. In brief, 30 μL was collected from each well and transferred to a 96-well plate. Next, 200 μL of Quanti-Blue detection reagent was added to each well. Plates were incubated at 37° C. for 60 min. and SEAP activity was assessed by spectrophotometer OD reading at 655 nm. […] Exact IC50 values were calculated based on 8-point dilutions for each compound. Approximate IC50 values (˜ or <) were calculated based on 4-point dilutions for each compound.

T1 sequence (O60603 21-784): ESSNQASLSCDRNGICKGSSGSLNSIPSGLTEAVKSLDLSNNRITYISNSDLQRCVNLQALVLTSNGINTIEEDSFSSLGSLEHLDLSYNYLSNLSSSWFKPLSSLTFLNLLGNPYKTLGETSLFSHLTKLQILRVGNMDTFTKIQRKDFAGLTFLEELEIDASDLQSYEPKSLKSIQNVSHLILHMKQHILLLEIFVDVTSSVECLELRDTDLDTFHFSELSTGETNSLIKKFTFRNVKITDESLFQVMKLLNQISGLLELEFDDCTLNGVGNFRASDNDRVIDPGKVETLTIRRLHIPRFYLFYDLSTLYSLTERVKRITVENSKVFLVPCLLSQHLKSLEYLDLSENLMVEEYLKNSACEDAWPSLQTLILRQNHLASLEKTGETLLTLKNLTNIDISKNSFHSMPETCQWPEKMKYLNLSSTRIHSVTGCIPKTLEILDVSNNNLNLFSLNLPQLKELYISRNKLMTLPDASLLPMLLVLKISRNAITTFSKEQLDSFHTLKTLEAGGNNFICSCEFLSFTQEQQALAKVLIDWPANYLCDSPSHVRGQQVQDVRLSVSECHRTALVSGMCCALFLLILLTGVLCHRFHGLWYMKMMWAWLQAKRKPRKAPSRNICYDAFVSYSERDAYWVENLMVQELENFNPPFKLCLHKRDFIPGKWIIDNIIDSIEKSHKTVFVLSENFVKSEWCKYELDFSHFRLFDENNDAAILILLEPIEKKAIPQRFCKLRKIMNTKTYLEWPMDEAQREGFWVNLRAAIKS
Sequence of human TLR9 (Q9NR96 26-1032): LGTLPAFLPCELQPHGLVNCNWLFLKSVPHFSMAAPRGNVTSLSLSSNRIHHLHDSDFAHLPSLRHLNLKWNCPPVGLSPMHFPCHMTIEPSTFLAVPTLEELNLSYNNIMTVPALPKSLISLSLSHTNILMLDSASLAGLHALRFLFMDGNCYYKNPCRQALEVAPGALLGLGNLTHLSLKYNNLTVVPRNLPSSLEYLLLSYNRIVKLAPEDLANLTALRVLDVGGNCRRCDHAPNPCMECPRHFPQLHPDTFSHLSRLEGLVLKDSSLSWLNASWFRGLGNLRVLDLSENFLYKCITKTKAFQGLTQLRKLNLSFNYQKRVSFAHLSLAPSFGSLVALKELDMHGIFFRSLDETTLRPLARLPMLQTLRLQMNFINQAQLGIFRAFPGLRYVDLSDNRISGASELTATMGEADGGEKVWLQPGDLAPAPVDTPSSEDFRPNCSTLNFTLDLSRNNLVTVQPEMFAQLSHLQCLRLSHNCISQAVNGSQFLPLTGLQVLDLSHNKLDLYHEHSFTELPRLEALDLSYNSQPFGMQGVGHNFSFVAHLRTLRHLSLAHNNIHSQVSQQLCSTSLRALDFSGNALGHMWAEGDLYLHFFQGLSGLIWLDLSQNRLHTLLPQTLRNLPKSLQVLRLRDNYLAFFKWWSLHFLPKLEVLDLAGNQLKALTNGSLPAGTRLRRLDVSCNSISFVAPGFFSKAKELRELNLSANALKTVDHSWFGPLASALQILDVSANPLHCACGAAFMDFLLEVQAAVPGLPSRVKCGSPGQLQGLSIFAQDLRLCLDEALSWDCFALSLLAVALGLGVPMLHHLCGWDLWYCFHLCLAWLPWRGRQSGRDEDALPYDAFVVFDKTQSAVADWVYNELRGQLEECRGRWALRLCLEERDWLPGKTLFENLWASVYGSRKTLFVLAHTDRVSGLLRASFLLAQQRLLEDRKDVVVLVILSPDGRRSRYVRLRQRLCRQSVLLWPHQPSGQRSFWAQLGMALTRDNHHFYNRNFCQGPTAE

Compound: O=Cc1cc(C(=O)Nc2nnc(-c3ccccc3)s2)cc(F)c1O [Compound 2, 3-fluoro-5-formyl-4-hydroxy-N-(5-phenyl-1,3,4-thiadiazol-2-yl)benzamide]
- IC50 (human TLR2 [1]): 6.7 µM
- IC50 (human TLR2 [2]): 2.2 µM
- IC50 (human TLR9): ~0.5 µM

Compound: O=Cc1cc(C(=O)Nc2ncc(-c3ccccc3)s2)cc(F)c1O [Compound 4, 3-fluoro-5-formyl-4-hydroxy-N-(5-phenylthiazol-2-yl)benzamide]
- IC50 (human TLR2 [1]): 0.9 µM
- IC50 (human TLR2 [2]): 0.5 µM
- IC50 (human TLR9): 0.2 µM

Compound: O=Cc1cc(C(=O)Nc2cnc(N3CCCCC3)s2)cc(F)c1O [Compound 7, 3-fluoro-5-formyl-4-hydroxy-N-(2-(piperidin-1-yl)thiazol-5-yl)benzamide]
- IC50 (human TLR2 [1]): > 100 µM
- IC50 (human TLR2 [2]): > 100 µM
- IC50 (human TLR9): > 33 µM

Compound: O=Cc1cc(NC(=O)c2ncc(-c3ccccc3)s2)cc(F)c1O [Compound 10, N-(3-fluoro-5-formyl-4-hydroxyphenyl)-5-phenylthiazole-2-carboxamide]
- IC50 (human TLR2 [1]): 1.6 µM
- IC50 (human TLR2 [2]): 0.9 µM
- IC50 (human TLR9): ~1 µM

Compound: O=Cc1cc(C(=O)NCCCc2ccc(N3CCCC3)cc2)cc(F)c1O [Compound 144, 3-fluoro-5-formyl-4-hydroxy-N-(3-(4-(pyrrolidin-1-yl)phenyl)propyl)benzamide]
- IC50 (human TLR2 [1]): 9.3 µM
- IC50 (human TLR2 [2]): 5.3 µM

Compound: CN(C(=O)c1cc(F)c(O)c(C=O)c1)C12CC(c3ccccc3)(C1)C2 [Compound 158, 3-fluoro-5-formyl-4-hydroxy-N-methyl-N-(3-phenylbicyclo[1.1.1]pentan-1-yl)benzamide]
- IC50 (human TLR2 [1]): 5.9 µM
- IC50 (human TLR2 [2]): 2.25 µM

Compound: O=Cc1cc(COC(=O)Nc2cccc(N3CCCC3)c2)cc(F)c1O [Compound 159, 3-fluoro-5-formyl-4-hydroxybenzyl (3-(pyrrolidin-1-yl)phenyl)carbamate]
- IC50 (human TLR2 [1]): 9.29 µM
- IC50 (human TLR2 [2]): 4.39 µM

Compound: O=Cc1cc(C(=O)NNc2cccc(Br)c2)cc(F)c1O [Compound 160, N′-(3-bromophenyl)-3-fluoro-5-formyl-4-hydroxybenzohydrazide]
- IC50 (human TLR2 [1]): 38.4 µM
- IC50 (human TLR2 [2]): 26.5 µM

Compound: O=Cc1cc(-c2nc(-c3ccc(N4CCCC4)cc3)ns2)cc(F)c1OC(=O)OC1CCOC1 (stereo not shown) [Compound 162, 2-fluoro-6-formyl-4-(3-(4-(pyrrolidin-1-yl)phenyl)-1,2,4-thiadiazol-5-yl)phenyl tetrahydrofuran-3-yl carbonate]
- IC50 (human TLR2 [1]): 11.5 µM
- IC50 (human TLR2 [2]): 4.3 µM

Compound: O=Cc1cc(C(=O)Nc2cnc(-c3ccnc(N4CCCC4)c3)s2)cc(F)c1O [Compound 168, 3-fluoro-5-formyl-4-hydroxy-N-(2-(2-(pyrrolidin-1-yl)pyridin-4-yl)thiazol-5-yl)benzamide]
- IC50 (human TLR2 [1]): 15.8 µM
- IC50 (human TLR2 [2]): 9.6 µM

Compound: O=Cc1cc(-c2nc(-c3ccc(N4CC(F)(F)C4)cc3)ns2)cc(F)c1O [Compound 169, 5-(3-(4-(3,3-difluoroazetidin-1-yl)phenyl)-1,2,4-thiadiazol-5-yl)-3-fluoro-2-hydroxybenzaldehyde]
- IC50 (human TLR2 [1]): 2.5 µM
- IC50 (human TLR2 [2]): 1.3 µM

Compound: NS(=O)(=O)c1ccc(-c2nsc(-c3cc(F)c(O)c(C=O)c3)n2)cc1 [Compound 170, 4-(5-(3-fluoro-5-formyl-4-hydroxyphenyl)-1,2,4-thiadiazol-3-yl)benzenesulfonamide]
- IC50 (human TLR2 [1]): 17.7 µM
- IC50 (human TLR2 [2]): 5.36 µM

Compound: O/N=C\c1cc(-c2nc(-c3ccc(N4CCCC4)cc3)ns2)cc(F)c1O [Compound 171, 3-fluoro-2-hydroxy-5-(3-(4-(pyrrolidin-1-yl)phenyl)-1,2,4-thiadiazol-5-yl)benzaldehyde oxime]
- IC50 (human TLR2 [1]): 2.52 µM
- IC50 (human TLR2 [2]): 1.03 µM

Compound: O=Cc1cc(-c2nc(-c3ccc(N4CCCC4)cc3)ns2)cc(F)c1OC(=O)N1CCCC1 [Compound 172, 2-fluoro-6-formyl-4-(3-(4-(pyrrolidin-1-yl)phenyl)-1,2,4-thiadiazol-5-yl)phenyl pyrrolidine-1-carboxylate]
- IC50 (human TLR2 [1]): 1 µM
- IC50 (human TLR2 [2]): 0.5 µM

Compound: CN(C)C(=O)Oc1c(F)cc(-c2nc(-c3ccc(N4CCCC4)cc3)ns2)cc1C=O [Compound 173, 2-fluoro-6-formyl-4-(3-(4-(pyrrolidin-1-yl)phenyl)-1,2,4-thiadiazol-5-yl)phenyl dimethylcarbamate]
- IC50 (human TLR2 [1]): 0.9 µM
- IC50 (human TLR2 [2]): 0.5 µM

Compound: O=Cc1cc(-c2nc(-c3ccc(N4CCCC4)cc3)ns2)cc(F)c1OC(=O)N1CCOCC1 [Compound 174, 2-fluoro-6-formyl-4-(3-(4-(pyrrolidin-1-yl)phenyl)-1,2,4-thiadiazol-5-yl)phenyl morpholine-4-carboxylate]
- IC50 (human TLR2 [1]): 1.5 µM
- IC50 (human TLR2 [2]): 0.6 µM

Compound: CN1CCN(C(=O)Oc2c(F)cc(-c3nc(-c4ccc(N5CCCC5)cc4)ns3)cc2C=O)CC1 [Compound 175, 2-fluoro-6-formyl-4-(3-(4-(pyrrolidin-1-yl)phenyl)-1,2,4-thiadiazol-5-yl)phenyl 4-methylpiperazine-1-carboxylate]
- IC50 (human TLR2 [1]): 1.2 µM
- IC50 (human TLR2 [2]): 0.3 µM

Compound: COCCOCC(=O)Oc1c(F)cc(-c2nc(-c3ccc(N4CCCC4)cc3)ns2)cc1C=O [Compound 176, 2-fluoro-6-formyl-4-(3-(4-(pyrrolidin-1-yl)phenyl)-1,2,4-thiadiazol-5-yl)phenyl 2-(2-methoxyethoxy)acetate]
- IC50 (human TLR2 [1]): 2 µM
- IC50 (human TLR2 [2]): 0.6 µM

Compound: C[n+]1ccccc1Oc1c(F)cc(-c2nc(-c3ccc(N4CCCC4)cc3)ns2)cc1C=O [Compound 177, 2-(2-fluoro-6-formyl-4-(3-(4-(pyrrolidin-1-yl)phenyl)-1,2,4-thiadiazol-5-yl)phenoxy)-1-methylpyridinium iodide]
- IC50 (human TLR2 [1]): 1.6 µM
- IC50 (human TLR2 [2]): 0.6 µM

Compound: CN1C(=O)Oc2c(F)cc(-c3nc(-c4ccc(N5CCCC5)cc4)ns3)cc2C1O (stereo not shown) [Compound 178, 8-fluoro-4-hydroxy-3-methyl-6-(3-(4-(pyrrolidin-1-yl)phenyl)-1,2,4-thiadiazol-5-yl)-3,4-dihydro-2H-benzo[e][1,3]oxazin-2-one]
- IC50 (human TLR2 [1]): 1.2 µM
- IC50 (human TLR2 [2]): 0.43 µM

Compound: COCCN1C(=O)Oc2c(F)cc(-c3nc(-c4ccc(N5CCCC5)cc4)ns3)cc2C1O (stereo not shown) [Compound 179, 8-fluoro-4-hydroxy-3-(2-methoxyethyl)-6-(3-(4-(pyrrolidin-1-yl)phenyl)-1,2,4-thiadiazol-5-yl)-3,4-dihydro-2H-benzo[e][1,3]oxazin-2-one]
- IC50 (human TLR2 [1]): 0.8 µM
- IC50 (human TLR2 [2]): 0.2 µM
